How the values were obtained:
[1] = Drug metabolism in C57BL/6 mouse liver assessed as INT-747 level at 10 mg/kg, po administered as single dose via gavage measured at 3 hrs post dose by LC-MS/MS analysis; type: ADME, organism-based; settings: in vivo
[2] = Drug level in C57BL/6 mouse liver at 2 mg/kg, po administered as single cassette dose via gavage measured at 3 hrs post dose by LC-MS/MS analysis; type: ADME, organism-based; settings: in vivo
[3] = Drug level in C57BL/6 mouse liver at 2 mg/kg, po administered as single cassette dose via gavage measured at 0.5 hrs post dose by LC-MS/MS analysis; type: ADME, organism-based; settings: in vivo
[4] = Ratio of drug level in liver to plasma in C57BL/6 mouse at 2 mg/kg, po administered as single cassette dose via gavage measured at 0.5 hrs post dose; type: ADME, organism-based
[5] = target: T1, G-protein coupled bile acid receptor 1 (Homo sapiens, UniProt Q8TDU6); test: Agonist activity at human TGR5 expressed in HEK293 cells assessed as increase in intracellular cAMP level after 1 hr by TR-FRET assay; type: functional, cell-based
T1 sequence (Q8TDU6 whole entry): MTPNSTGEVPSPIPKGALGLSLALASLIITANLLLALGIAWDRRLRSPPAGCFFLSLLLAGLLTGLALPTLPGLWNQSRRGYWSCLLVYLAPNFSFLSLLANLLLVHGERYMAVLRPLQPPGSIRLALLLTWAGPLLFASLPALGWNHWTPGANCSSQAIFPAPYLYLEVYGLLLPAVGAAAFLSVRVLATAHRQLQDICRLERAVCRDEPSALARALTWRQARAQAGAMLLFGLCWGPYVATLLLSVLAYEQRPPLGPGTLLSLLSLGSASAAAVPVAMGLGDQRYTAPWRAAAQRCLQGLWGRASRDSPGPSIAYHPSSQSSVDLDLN

Mus musculus [6] = test: Anti-hepatic steatosis activity in HFD/CCl4-induced non-alcoholic hepatic steatosis C57BL/6 mouse model assessed as reduction in hepatic steatosis score administered once daily via oral gavage for 28 days measured at post last dose by hematoxylin-eosin staining based assay; type: ADME, organism-based; settings: in vivo, 672 h
Mus musculus [7] = test: AUC in C57BL/6 mouse assessed as INT-747 level at 10 mg/kg, po administered via gavage; type: ADME, organism-based; settings: in vivo
[8] = Drug level in C57BL/6 mouse plasma at 10 mg/kg, po administered as single dose via gavage measured at 0.5 hrs post dose by LC-MS/MS analysis; type: ADME, organism-based
Mus musculus [9] = test: Cmax in C57BL/6 mouse assessed as tauro-INT-747 level at 10 mg/kg, po administered via gavage; type: ADME, organism-based; parameters: dose 10 mg/kg, route oral; settings: in vivo
[10] = Drug level in C57BL/6 mouse plasma at 2 mg/kg, po administered as single dose via gavage measured at 0.5 hrs post dose by LC-MS/MS analysis; type: ADME, organism-based
[11] = AUC in C57BL/6 mouse at 10 mg/kg, po administered via gavage; type: ADME, organism-based; settings: in vivo
Mus musculus [12] = test: Tmax in C57BL/6 mouse assessed as tauro-INT-747 level at 10 mg/kg, po administered via gavage; type: ADME, organism-based; settings: in vivo
Homo sapiens = organism: Homo sapiens; test: Selectivity ratio of EC50 for recombinant human GST-tagged FXR LBD (193 to 472 residues) expressed in baculovirus-infected insect cells to EC50 for human TGR5 expressed in HEK293 cells
[13] = Ratio of drug level in C57BL/6 mouse liver to plasma at 10 mg/kg, po administered as single dose via gavage measured at 3 hrs post dose by LC-MS/MS analysis; type: ADME, organism-based
Mus musculus [14] = test: Tmax in C57BL/6 mouse assessed as INT-747 level at 10 mg/kg, po administered via gavage; type: ADME, organism-based; settings: in vivo
[15] = target: T2, Bile acid receptor (Homo sapiens) (UniProt Q96RI1); test: Agonist activity at recombinant human Gal4-fused FXR expressed in CHO cells measured after 22 hrs by luciferase reporter gene assay relative to CDCA; type: cell-based
T2 sequence (whole entry): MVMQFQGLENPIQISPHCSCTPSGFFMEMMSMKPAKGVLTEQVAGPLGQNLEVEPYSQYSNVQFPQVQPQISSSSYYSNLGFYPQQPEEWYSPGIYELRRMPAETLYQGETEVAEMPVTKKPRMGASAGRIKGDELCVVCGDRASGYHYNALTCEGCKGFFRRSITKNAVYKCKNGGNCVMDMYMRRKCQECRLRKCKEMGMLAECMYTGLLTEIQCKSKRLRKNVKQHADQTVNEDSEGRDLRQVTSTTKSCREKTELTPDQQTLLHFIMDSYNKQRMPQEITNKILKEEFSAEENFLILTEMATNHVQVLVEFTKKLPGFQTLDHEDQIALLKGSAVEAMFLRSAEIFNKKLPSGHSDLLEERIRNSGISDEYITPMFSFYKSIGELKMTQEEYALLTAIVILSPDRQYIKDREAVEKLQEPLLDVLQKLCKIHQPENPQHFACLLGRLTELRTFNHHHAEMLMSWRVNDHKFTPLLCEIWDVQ

Mus musculus [16] = test: AUC in C57BL/6 mouse assessed as glyco-INT-747 level at 10 mg/kg, po administered via gavage; type: ADME, organism-based; settings: in vivo, BLD = below limit of detection
[17] = Drug level in C57BL/6 mouse plasma at 2 mg/kg, po administered as single cassette dose via gavage measured at 3 hrs post dose by LC-MS/MS analysis; type: ADME, organism-based
[18] = Drug metabolism in C57BL/6 mouse assessed as ratio of INT-747 level in liver to plasma at 10 mg/kg, po administered as single dose via gavage measured at 3 hrs post dose by LC-MS/MS analysis; type: ADME, organism-based; settings: other tissue
[19] = Ratio of drug level in liver to plasma in C57BL/6 mouse at 2 mg/kg, po administered as single cassette dose via gavage measured at 3 hrs post dose; type: ADME, organism-based
[20] = Drug level in C57BL/6 mouse liver at 10 mg/kg, po administered as single dose via gavage measured at 3 hrs post dose by LC-MS/MS analysis; type: ADME, organism-based; settings: in vivo
[21] = Ratio of drug level in C57BL/6 mouse liver to plasma at 10 mg/kg, po administered as single dose via gavage measured at 0.5 hrs post dose by LC-MS/MS analysis; type: ADME, organism-based
[22] = Tmax in C57BL/6 mouse at 10 mg/kg, po administered via gavage; type: ADME, organism-based; settings: in vivo
[23] = Drug metabolism in C57BL/6 mouse liver assessed as INT-747 level at 10 mg/kg, po administered as single dose via gavage measured at 0.5 hrs post dose by LC-MS/MS analysis; type: ADME, organism-based; settings: in vivo
[24] = Drug metabolism in C57BL/6 mouse plasma assessed as INT-747 level at 10 mg/kg, po administered as single dose via gavage measured at 3 hrs post dose by LC-MS/MS analysis; type: ADME, organism-based; settings: in vivo
Bile acid receptor [25] = target: T3, Bile acid receptor (Homo sapiens, UniProt Q96RI1); test: Agonist activity at recombinant human Gal4-fused FXR expressed in CHO cells measured after 22 hrs by luciferase reporter gene assay; type: cell-based
T3 sequence (Q96RI1 whole entry): T2 sequence (whole entry)

[26] = Drug metabolism in C57BL/6 mouse assessed as ratio of INT-747 level in liver to plasma at 10 mg/kg, po administered as single dose via gavage measured at 0.5 hrs post dose by LC-MS/MS analysis; type: ADME, organism-based; settings: other tissue
Mus musculus [27] = test: AUC in C57BL/6 mouse assessed as tauro-INT-747 level at 10 mg/kg, po administered via gavage; type: ADME, organism-based; settings: in vivo
[28] = Cmax in C57BL/6 mouse at 10 mg/kg, po administered via gavage; type: ADME, organism-based; parameters: dose 10 mg/kg, route oral; settings: in vivo
[29] = Drug level in C57BL/6 mouse liver at 10 mg/kg, po administered as single dose via gavage measured at 0.5 hrs post dose by LC-MS/MS analysis; type: ADME, organism-based; settings: in vivo
Mus musculus [30] = test: Cmax in C57BL/6 mouse assessed as INT-747 level at 10 mg/kg, po administered via gavage; type: ADME, organism-based; parameters: dose 10 mg/kg, route oral; settings: in vivo
Mus musculus [31] = test: Anti-hepatic steatosis activity in HFD/CCl4-induced non-alcoholic hepatic steatosis C57BL/6 mouse model assessed as reduction in triglyceride level administered once daily via oral gavage for 28 days measured at post last dose by […] assay; type: ADME, organism-based; settings: in vivo, 672 h
Mus musculus [32] = test: Anti-hepatic steatosis activity in HFD/CCl4-induced non-alcoholic hepatic steatosis C57BL/6 mouse model assessed as reduction in liver fibrosis administered once daily via oral gavage for 28 days measured at post last dose by sirus red staining based assay; type: ADME, organism-based; settings: in vivo, 672 h
Mus musculus [33] = test: Cmax in C57BL/6 mouse assessed as glyco-INT-747 level at 10 mg/kg, po administered via gavage; type: ADME, organism-based; parameters: dose 10 mg/kg, route oral; settings: in vivo, BLD = below limit of detection
[34] = Drug level in C57BL/6 mouse plasma at 10 mg/kg, po administered as single dose via gavage measured at 3 hrs post dose by LC-MS/MS analysis; type: ADME, organism-based
Bile acid receptor [35] = target: T3, Bile acid receptor; test: Agonist activity at recombinant human GST-tagged FXR LBD (193 to 472 residues) expressed in baculovirus-infected insect cells assessed as recruitment of biotinylated SRC1 peptide measured after 1 hr by Alphascreen assay
[36] = target: T2, Bile acid receptor (Homo sapiens); test: Agonist activity at recombinant human GST-tagged FXR LBD (193 to 472 residues) expressed in baculovirus-infected insect cells assessed as recruitment of biotinylated SRC1 peptide measured after 1 hr by Alphascreen assay relative to CDCA

## CC[C@H]1[C@@H](O)[C@@H]2[C@H](CC[C@]3(C)[C@@H]([C@H](C)CCC(=O)NS(C)(=O)=O)CC[C@@H]23)[C@@]2(C)CC[C@@H](O)C[C@@H]12
[1]
  Drug uptake: 1486 nmol/kg
[2]
  Drug uptake: 1361 nmol/kg
[3]
  Drug uptake: 7183 nmol/kg
[4]
  Kp at 0.5 h: 53
[5]
  EC50: 700 nM
Mus musculus [6]
  Activity: Dose-dependent effect
Mus musculus [7]
  AUC: 0.216 µM·h
[8]
  concentration at 0.5 h: 388 nM
Mus musculus [9]
  Cmax: 270 nM
[10]
  concentration at 0.5 h: 136 nM
[11]
  AUC: 1.19 µM·h
Mus musculus [12]
  Tmax: 480 min
Homo sapiens
  Ratio EC50: 14
[13]
  Kp at 3 h: 52
Mus musculus [14]
  Tmax: 30 min
[15]
  Efficacy: 191%
Mus musculus [16]
  AUC: Bld
[17]
  concentration at 3 h: 15 nM
[18]
  Ratio: 12
[19]
  Kp at 3 h: 124
[20]
  Drug uptake: 15560 nmol/kg
[21]
  Kp at 0.5 h: 53
[22]
  Tmax: 30 min
[23]
  Drug uptake: 2863 nmol/kg
[24]
  concentration: 126 nM
Bile acid receptor [25]
  EC50: 50 nM
[26]
  Ratio: 21
Mus musculus [27]
  AUC: 5.416 µM·h
[28]
  Cmax: 610 nM
[29]
  Drug uptake: 27920 nmol/kg
Mus musculus [30]
  Cmax: 446 nM
Mus musculus [31]
  Activity: Dose-dependent effect
Mus musculus [32]
  Activity: Dose-dependent effect
Mus musculus [33]
  Cmax: Bld
[34]
  concentration at 3 h: 298 nM

## CC[C@H]1[C@@H](O)[C@@H]2[C@H](CC[C@]3(C)[C@@H]([C@H](C)CCc4cc(O)no4)CC[C@@H]23)[C@@]2(C)CC[C@@H](O)C[C@@H]12
[2]
  Drug uptake: 257 nmol/kg
[3]
  Drug uptake: 1896 nmol/kg
[4]
  Kp at 0.5 h: 44
[5]
  EC50: 520 nM
Bile acid receptor [35]
  EC50: 30 nM
[10]
  concentration at 0.5 h: 43 nM
Homo sapiens
  Ratio EC50: 17
[17]
  concentration at 3 h: 6 nM
[19]
  Kp at 3 h: 43
[36]
  Efficacy: 121%

## CC[C@H]1[C@@H](O)[C@@H]2[C@H](CC[C@]3(C)[C@@H]([C@H](C)CCNC(=O)C(=O)O)CC[C@@H]23)[C@@]2(C)CC[C@@H](O)C[C@@H]12
[2]
  Drug uptake: 1363 nmol/kg
[3]
  Drug uptake: 277 nmol/kg
[4]
  Kp at 0.5 h: 13
[5]
  EC50: 240 nM
Bile acid receptor [35]
  EC50: 20 nM
[10]
  concentration at 0.5 h: 21 nM
Homo sapiens
  Ratio EC50: 12
[17]
  concentration at 3 h: 38 nM
[19]
  Kp at 3 h: 36
[36]
  Efficacy: 109%
